In brackets after ≈: the same amount, converted by molar mass.
Experiments:
[1] = test system: Rattus norvegicus; experiment: Anti-inflammatory activity in Rattus norvegicus Wistar albino (rat) assessed as carrageenan-induced paw volume at 100 mg/kg, po administered 1 hr prior to carrageenan-challenge measured at 1 hr (reference value: 1.2075 +/- 0.0405 mm3); assay type: functional
[2] = test system: Rattus norvegicus; experiment: Anti-inflammatory activity in Rattus norvegicus Wistar albino (rat) assessed as carrageenan-induced paw volume at 100 mg/kg, po administered 1 hr prior to carrageenan-challenge measured at 3 hr (reference value: 1.225 +/- 0.0484 mm3); assay type: functional
[3] = test system: Escherichia coli; experiment: Antimicrobial activity against Escherichia coli ATCC 25922 assessed as reduction in log10 CFU/ml at MIC after 2 hr by time kill study relative to control; assay type: functional; design: scale not given: the % may be the effect or the level left
[4] = test system: HEp-2; experiment: Cytotoxicity against Homo sapiens (human) Hep2 cells after 24 hr by MTT assay; assay type: functional, cell-based; settings: HEp-2, 24 h
[5] = test system: Candida albicans; experiment: Antimicrobial activity against Candida albicans ATCC 24433 assessed as reduction in log10 CFU/ml at MIC after 24 hr by time kill study relative to control; assay type: functional; design: scale not given: the % may be the effect or the level left
[6] = test system: Candida albicans; experiment: Antimicrobial activity against Candida albicans ATCC 24433 after 48 hr by broth micro dilution assay; assay type: functional; settings: ATCC 24433, 48 h
[7] = test system: Pseudomonas aeruginosa; experiment: Antimicrobial activity against Pseudomonas aeruginosa ATCC 27853 assessed as reduction in log10 CFU/ml at MIC after 4 hr by time kill study relative to control; assay type: functional; design: scale not given: the % may be the effect or the level left
[8] = test system: Pseudomonas aeruginosa; experiment: Antimicrobial activity against Pseudomonas aeruginosa ATCC 27853 assessed as reduction in log10 CFU/ml at MIC after 2 hr by time kill study relative to control; assay type: functional; design: scale not given: the % may be the effect or the level left
[9] = test system: Candida albicans; experiment: Antimicrobial activity against Candida albicans ATCC 24433 assessed as reduction in log10 CFU/ml at MIC after 6 hr by time kill study relative to control; assay type: functional; design: scale not given: the % may be the effect or the level left
[10] = test system: Staphylococcus aureus; experiment: Antimicrobial activity against Staphylococcus aureus ATCC 25923 assessed as reduction in log10 CFU/ml at MIC after 24 hr by time kill study relative to control; assay type: functional; design: scale not given: the % may be the effect or the level left
[11] = test system: Aspergillus flavus; experiment: Antimicrobial activity against Aspergillus flavus ATCC 15517 assessed as reduction in log10 CFU/ml at MIC after 12 hr by time kill study relative to control; assay type: functional; design: scale not given: the % may be the effect or the level left
[12] = test system: Staphylococcus aureus; experiment: Antimicrobial activity against Staphylococcus aureus ATCC 25923 assessed as reduction in log10 CFU/ml at MIC after 12 hr by time kill study relative to control; assay type: functional; design: scale not given: the % may be the effect or the level left
[13] = test system: Rattus norvegicus; experiment: Anti-inflammatory activity in Rattus norvegicus Wistar albino (rat) assessed as carrageenan-induced paw volume at 100 mg/kg, po administered 1 hr prior to carrageenan-challenge measured at 4 hr (reference value: 1.2825 +/- 0.0862 mm3); assay type: functional
[14] = test system: Staphylococcus aureus; experiment: Antimicrobial activity against Staphylococcus aureus ATCC 25923 assessed as reduction in log10 CFU/ml at MIC after 6 hr by time kill study relative to control; assay type: functional; design: scale not given: the % may be the effect or the level left
[15] = test system: Escherichia coli; experiment: Antimicrobial activity against Escherichia coli ATCC 25922 assessed as reduction in log10 CFU/ml at MIC after 6 hr by time kill study relative to control; assay type: functional; design: scale not given: the % may be the effect or the level left
[16] = test system: Escherichia coli; experiment: Antimicrobial activity against Escherichia coli ATCC 25922 assessed as reduction in log10 CFU/ml at MIC after 4 hr by time kill study relative to control; assay type: functional; design: scale not given: the % may be the effect or the level left
[17] = test system: Staphylococcus aureus; experiment: Antimicrobial activity against Staphylococcus aureus ATCC 25923 assessed as reduction in log10 CFU/ml at MIC after 4 hr by time kill study relative to control; assay type: functional; design: scale not given: the % may be the effect or the level left
[18] = test system: Aspergillus flavus; experiment: Antimicrobial activity against Aspergillus flavus ATCC 15517 assessed as reduction in log10 CFU/ml at MIC after 24 hr by time kill study relative to control; assay type: functional; design: scale not given: the % may be the effect or the level left
[19] = test system: Aspergillus flavus; experiment: Antimicrobial activity against Aspergillus flavus ATCC 15517 after 48 hr by broth micro dilution assay; assay type: functional; settings: ATCC 15517, 48 h
[20] = test system: Rattus norvegicus; experiment: Anti-inflammatory activity in Rattus norvegicus Wistar albino (rat) assessed as carrageenan-induced paw volume at 100 mg/kg, po administered 1 hr prior to carrageenan-challenge measured at 2 hr (reference value: 1.4175 +/- 0.1931 mm3); assay type: functional
[21] = test system: Pseudomonas aeruginosa; experiment: Antimicrobial activity against Pseudomonas aeruginosa ATCC 27853 assessed as reduction in log10 CFU/ml at MIC after 24 hr by time kill study relative to control; assay type: functional; design: scale not given: the % may be the effect or the level left
[22] = test system: Candida albicans; experiment: Antimicrobial activity against Candida albicans ATCC 24433 assessed as reduction in log10 CFU/ml at MIC after 12 hr by time kill study relative to control; assay type: functional; design: scale not given: the % may be the effect or the level left
[23] = test system: Candida albicans; experiment: Antimicrobial activity against Candida albicans ATCC 24433 assessed as reduction in log10 CFU/ml at MIC after 4 hr by time kill study relative to control; assay type: functional; design: scale not given: the % may be the effect or the level left
[24] = test system: Escherichia coli; experiment: Antimicrobial activity against Escherichia coli ATCC 25922 assessed as reduction in log10 CFU/ml at MIC after 12 hr by time kill study relative to control; assay type: functional; design: scale not given: the % may be the effect or the level left
[25] = test system: Aspergillus flavus; experiment: Antimicrobial activity against Aspergillus flavus ATCC 15517 assessed as reduction in log10 CFU/ml at MIC after 2 hr by time kill study relative to control; assay type: functional; design: scale not given: the % may be the effect or the level left
[26] = test system: Escherichia coli; experiment: Antimicrobial activity against Escherichia coli ATCC 25922 assessed as reduction in log10 CFU/ml at MIC after 24 hr by time kill study relative to control; assay type: functional; design: scale not given: the % may be the effect or the level left
[27] = test system: Aspergillus flavus; experiment: Antimicrobial activity against Aspergillus flavus ATCC 15517 assessed as reduction in log10 CFU/ml at MIC after 6 hr by time kill study relative to control; assay type: functional; design: scale not given: the % may be the effect or the level left
[28] = Cytotoxicity against Homo sapiens (human) Chang cells after 24 hr by MTT assay; assay type: functional, cell-based
[29] = test system: Pseudomonas aeruginosa; experiment: Antimicrobial activity against Pseudomonas aeruginosa ATCC 27853 assessed as reduction in log10 CFU/ml at MIC after 12 hr by time kill study relative to control; assay type: functional; design: scale not given: the % may be the effect or the level left
[30] = test system: Pseudomonas aeruginosa; experiment: Antimicrobial activity against Pseudomonas aeruginosa ATCC 27853 after 24 hr by broth micro dilution assay; assay type: functional; settings: ATCC 27853, 24 h
[31] = test system: Rattus norvegicus; experiment: Anti-inflammatory activity in Rattus norvegicus Wistar albino (rat) assessed as carrageenan-induced paw volume at 100 mg/kg, po administered 1 hr prior to carrageenan-challenge measured at 5 hr (reference value: 1.24 +/- 0.0754 mm3); assay type: functional
[32] = test system: Staphylococcus aureus; experiment: Antimicrobial activity against Staphylococcus aureus ATCC 25923 after 24 hr by broth micro dilution assay; assay type: functional; settings: ATCC 25923, 24 h
[33] = test system: Staphylococcus aureus; experiment: Antimicrobial activity against Staphylococcus aureus ATCC 25923 assessed as reduction in log10 CFU/ml at MIC after 2 hr by time kill study relative to control; assay type: functional; design: scale not given: the % may be the effect or the level left
[34] = test system: Aspergillus flavus; experiment: Antimicrobial activity against Aspergillus flavus ATCC 15517 assessed as reduction in log10 CFU/ml at MIC after 4 hr by time kill study relative to control; assay type: functional; design: scale not given: the % may be the effect or the level left
[35] = test system: HeLa; experiment: Cytotoxicity against Homo sapiens (human) HeLa cells after 24 hr by MTT assay; assay type: functional, cell-based
[36] = test system: Pseudomonas aeruginosa; experiment: Antimicrobial activity against Pseudomonas aeruginosa ATCC 27853 assessed as reduction in log10 CFU/ml at MIC after 6 hr by time kill study relative to control; assay type: functional; design: scale not given: the % may be the effect or the level left
[37] = test system: Escherichia coli; experiment: Antimicrobial activity against Escherichia coli ATCC 25922 after 24 hr by broth micro dilution assay; assay type: functional; settings: ATCC 25922, 24 h
[38] = test system: Candida albicans; experiment: Antimicrobial activity against Candida albicans ATCC 24433 assessed as reduction in log10 CFU/ml at MIC after 2 hr by time kill study relative to control; assay type: functional; design: scale not given: the % may be the effect or the level left

Structure (SMILES): O=c1c2cc(Cl)ccc2nc(-c2ccccc2)n1-c1ccc(F)cc1
- Activity [1]: 1.22 mm3
- Activity [2]: 1.21 mm3
- Activity [3]: 33.3%
- IC50 [4]: 10.8 µg/mL (≈ 30.7 µM)
- Activity [5]: 100%
- MIC [6]: 1.56 µg/mL (≈ 4.45 µM)
- Activity [7]: 66.7%
- Activity [8]: 66.7%
- Activity [9]: 100%
- Activity [10]: 100%
- Activity [11]: 66.7%
- Activity [12]: 100%
- Activity [13]: 1.275 mm3
- Activity [14]: 100%
- Activity [15]: 100%
- Activity [16]: 66.7%
- Activity [17]: 66.7%
- Activity [18]: 100%
- MIC [19]: 6.25 µg/mL (≈ 17.8 µM)
- Activity [20]: 1.2675 mm3
- Activity [21]: 100%
- Activity [22]: 100%
- Activity [23]: 66.7%
- Activity [24]: 100%
- Activity [25]: 11.1%
- Activity [26]: 100%
- Activity [27]: 88.9%
- IC50 [28]: 16.6 µg/mL (≈ 47.3 µM)
- Activity [29]: 100%
- MIC [30]: 0.78 µg/mL (≈ 2.22 µM)
- Activity [31]: 1.21 mm3
- MIC [32]: 0.39 µg/mL (≈ 1.11 µM)
- Activity [33]: 33.3%
- Activity [34]: 22.2%
- IC50 [35]: < 25 µg/mL
- Activity [36]: 100%
- MIC [37]: 0.39 µg/mL (≈ 1.11 µM)
- Activity [38]: 44.4%
